Legend:
[1] = Cyclic voltammetry in anhydrous acetonitrile; type: physicochemical; settings: 100 mV s−1, Pt pseudo-reference (Fc+/0 at +0.45 V)
Protocol: It has been reported that coumarins and their derivatives are able to regulate the reactive oxygen species (ROS). For example, esculetin induces cytotoxicity in pancreatic cancer cells decreasing ROS and protein levels of the ROS-dependent transcription factor NF-κB [49]. On the other end, coumarins induce the generation and accumulation of ROS in cancer cells causing cell cycle arrest and apoptotic cell death. […] Conversely, 2h produces an antiproliferative response in TPC-1 cells by scavenging ROS. In an attempt of a better understanding of the results, such compounds were explored from an electrochemical point of view by means of cyclic voltammetry in anhydrous acetonitrile.
The electrochemical properties of compounds 2h and 2k were investigated by cyclic voltammetry (CV) technique under an inert atmosphere. The measurements have been carried out at 100 mV s^−1 with a three-electrode cell using a platinum tip as a working electrode, a platinized titanium net as a counter electrode, and a platinum wire as a pseudo-reference electrode. The electrochemical measurements were performed at room temperature using an AUTOLAB PGSTAT302N (Metrohm, Herisau, Switzerland) potentiostat/galvanostat controlled with the NOVA software. All the solutions were prepared in anhydrous degassed acetonitrile with 0.1 M [n-Bu4N][PF6] as supporting electrolyte: in this condition, the Fc^+/0 redox couple is centered at +0.45 V.

[2] = tested on: TPC-1 cells; assay: Cell cycle analysis by flow cytometry (PI/RNase staining); type: cell-based; settings: 20 µM, 24 h, compared with untreated cells
Protocol: Among the potential mechanisms involved in the treatment of cancer, there is the arrest of the cell cycle. To detect whether the cytotoxicity of coumarins 2k and 2h resulted from cell cycle progression, the effects on the cell cycle of TPC-1 cells were analyzed by flow cytometry after labeling with PI (propidium iodide)/RNase Staining Buffer detection kit. […] According to apoptosis results, the cell cycle arrest could be responsible for the cytotoxicity in cancer cells. In the present study, it was observed that coumarin 2k determined cell arrest of TPC-1 cells in the G2/M phase, indicating the apoptotic mode of cell death and inhibition of DNA synthesis (S phase reduction). This finding is consistent with previous investigations reporting that coumarins able to induce cytotoxicity by inducing G2/M and S phases arrest in different cancer cell lines.
The cells were seeded (5 × 10^4 cells/mL) in six-well plates (Corning, Tewksbury, MA, USA). After 24 h, they were treated with coumarins (20 µM) for 24 h. Cell cycle analysis was performed by using the Invitrogen™ FxCycle™ PI/RNase Staining Solution (according to the manufacturer’s instructions, Thermo Fisher Scientific, Waltham, MA, USA), and then the DNA content was evaluated by flow cytometry (MoFloAstrios EQ, Beckman Coulter, Brea, CA, USA). The analysis of cell cycle phase distribution was accomplished via Kaluza Flow Cytometry Analysis Software (Software Version 1.2, Beckman Coulter) by setting 3 gates in each single parameter histogram: G0/G1, S, and G2/M.

[3] = tested on: Nthy-ori-3-1 normal thyroid cells; assay: Annexin V-FITC/PI apoptosis assay by flow cytometry; type: cell-based; settings: 20 μM, 24 h
Protocol: (§1) To determine whether the two studied coumarins 2k and 2h, induce cell death through apoptosis or necrosis, we performed double staining with fluorescent Annexin V-FITC/propidium iodide (PI) apoptosis detection kit in TPC-1 and Nthy-ori-3-1 as control cells. This assay is based on the ability of Annexin to recognize phosphatidylserine (PS), a membrane phospholipid exposed on the cell surface of apoptotic cells, while PI is able to bind the DNA of necrotic cells. Thanks to this combination, […] cell populations are obtained: cells negative for Annexin V-FITC and PI indicate live cells, Annexin V-FITC-positive/PI-negative and Annexin V-FITC-positive/PI-positive indicate early and late apoptotic cells, while cells negative for Annexin V-FITC and PI-positive are necrotic.
(§2) To investigate cell death induced by coumarins treatment, a flow cytometric analysis using the cell apoptosis kit Annexin V/propidium iodide (PI) double staining uptake (Life Technologies, Monza, Italy) was employed. Control and PTC-derived cells, at the density of 5 × 10^4 cells/mL, were seeded in 6-well plates (Corning) with complete DMEM/F12. First, the cells were treated with 20 µM of coumarins for 24 h. Cells were washed once with PBS 1X and stained according to the kit’s protocol. Stained cells were then analyzed by flow cytometry, measuring the fluorescence emission at 530 and 620 nm using a 488 nm excitation laser (MoFloAstrios EQ, Beckman Coulter). Cell apoptosis was analyzed using Software Summit Version 6.3.1.1, Beckman Coulter.

[4] = tested on: TPC-1 cells; assay: as above; type: cell-based; settings: for total apoptotic cells: 20 μM, 24 h, untreated cells 10%; for viability at 20 µM: Homo sapiens, TPC1, 24 h, untreated cells 87%, read-out: viable cells
Protocol: as §1, §2

[5] = tested on: Nthy-ori-3-1 cells; assay: Cell cycle analysis by flow cytometry (PI/RNase staining); type: cell-based; settings: control cells (Nthy-ori-3-1); 20 µM, 24 h

oxidation peak potential [1] | reduction feature potential [1] | Compound | effect on G2/M phase cell population [2] | induction of apoptosis [3] | total apoptotic cells [4] | viability at 20 µM [4] | effect on the cell cycle [5] | effect on S phase cell population [2]
0.6 V | −1.02 V | N#Cc1cc2cc(Br)cc(Br)c2oc1=O [2h, 6,8-dibromo-2-oxo-2H-chromene-3-carbonitrile] | same trend | No significant induction of apoptosis | 18% | 77.7% | No effect on the cell cycle | –
0.75 V | −0.95 V | N#Cc1cc2cc(I)cc(I)c2oc1=O [2k, 6,8-diiodo-2-oxo-2H-chromene-3-carbonitrile] | increase in TPC-1 cells in the G2/M phase | No significant induction of apoptosis | 34% | 62% | No effect on the cell cycle | decreases the cell population in the S phase
